According to PMC5513037, “Examining the influence of specificity ligands and ATP-competitive ligands on the overall effectiveness of bivalent kinase inhibitors” (Proteome Science, 2017):

Assays:
Test in all cases: KAM-matrix competition in K562 lysate;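 on 0.001 uM KAM: median log10 fold change of treatment over DMSO control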;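 on 0.01 uM KAM: median log10 fold change of treatment over DMSO control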;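 on 0.1 uM KAM: median log10 fold change of treatment over DMSO control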;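 on 1 uM KAM: median log10 fold change of treatment over DMSO control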;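 on 10 uM KAM: median log10 fold change of treatment over DMSO control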
Assay type in all cases: binding
RIPK2 = target: T1, RIPK2 (Homo sapiens, UniProt O43353)
T1 construct: endogenous in cells; host or cells: K562
T1 sequence (O43353 whole entry): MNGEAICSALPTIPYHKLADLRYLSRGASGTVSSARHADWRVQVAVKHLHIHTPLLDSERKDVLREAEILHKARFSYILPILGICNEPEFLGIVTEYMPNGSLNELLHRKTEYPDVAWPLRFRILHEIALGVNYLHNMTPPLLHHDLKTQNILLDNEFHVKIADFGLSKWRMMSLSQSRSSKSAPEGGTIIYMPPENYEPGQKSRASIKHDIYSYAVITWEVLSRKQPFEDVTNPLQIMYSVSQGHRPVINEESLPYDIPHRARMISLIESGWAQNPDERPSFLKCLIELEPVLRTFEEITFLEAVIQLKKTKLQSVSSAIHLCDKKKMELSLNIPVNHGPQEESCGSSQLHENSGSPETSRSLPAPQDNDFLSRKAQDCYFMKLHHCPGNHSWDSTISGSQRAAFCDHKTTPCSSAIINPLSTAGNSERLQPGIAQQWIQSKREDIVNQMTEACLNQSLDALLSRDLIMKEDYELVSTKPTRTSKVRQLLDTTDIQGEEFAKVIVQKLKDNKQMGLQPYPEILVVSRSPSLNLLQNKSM
Method: (§1) Supplement 12953_2017_125_MOESM1_ESM.zip/MS_Supp Info.xlsx, sheet "KAM" | column: 10 uM KAM; 1 uM KAM; 0.1 uM KAM; 0.01 uM KAM; 0.001 uM KAM; RB50

ACVR2B = target: T2, ACVR2B (Homo sapiens, UniProt Q13705);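 on 0.001 uM KAM: median log10 fold change of treatment over DMSO control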;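 on 0.01 uM KAM: median log10 fold change of treatment over DMSO control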;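 on 0.1 uM KAM: median log10 fold change of treatment over DMSO control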;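 on 1 uM KAM: median log10 fold change of treatment over DMSO control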;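 on 10 uM KAM: median log10 fold change of treatment over DMSO control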
T2 construct: endogenous in cells; host or cells: K562 cell lysate
T2 sequence (Q13705 19-512): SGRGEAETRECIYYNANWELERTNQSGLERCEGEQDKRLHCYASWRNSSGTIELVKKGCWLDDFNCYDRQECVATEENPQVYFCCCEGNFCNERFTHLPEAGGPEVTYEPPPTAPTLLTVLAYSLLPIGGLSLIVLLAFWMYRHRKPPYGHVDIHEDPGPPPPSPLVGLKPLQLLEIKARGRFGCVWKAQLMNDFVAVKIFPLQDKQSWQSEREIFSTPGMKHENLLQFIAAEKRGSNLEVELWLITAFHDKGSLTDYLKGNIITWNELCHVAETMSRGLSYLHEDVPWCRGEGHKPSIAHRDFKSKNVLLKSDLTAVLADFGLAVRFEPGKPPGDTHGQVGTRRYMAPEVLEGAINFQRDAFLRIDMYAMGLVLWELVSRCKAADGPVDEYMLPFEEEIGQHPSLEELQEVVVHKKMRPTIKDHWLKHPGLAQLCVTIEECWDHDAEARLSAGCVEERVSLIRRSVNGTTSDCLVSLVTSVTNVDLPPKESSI
Method: as §1

MAPK9 = target: T3, MAPK9 (Homo sapiens, UniProt P45984)
T3 construct: endogenous in cells; host or cells: K562
Method: as §1

BRD4 = target: T4, BRD4 (Homo sapiens, UniProt O60885);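 on 0.001 uM KAM: median log10 fold change of treatment over DMSO control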;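 on 0.01 uM KAM: median log10 fold change of treatment over DMSO control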;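 on 0.1 uM KAM: median log10 fold change of treatment over DMSO control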;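 on 1 uM KAM: median log10 fold change of treatment over DMSO control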;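 on 10 uM KAM: median log10 fold change of treatment over DMSO control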
T4 construct: endogenous in cells; host or cells: K562
Method: as §1

BUB1B = target: T5, BUB1B (Homo sapiens, UniProt O60566);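 on 0.001 uM KAM: median log10 fold change of treatment over DMSO control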;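 on 0.01 uM KAM: median log10 fold change of treatment over DMSO control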;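 on 0.1 uM KAM: median log10 fold change of treatment over DMSO control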;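 on 1 uM KAM: median log10 fold change of treatment over DMSO control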;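 on 10 uM KAM: median log10 fold change of treatment over DMSO control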
T5 construct: endogenous in cells; host or cells: K562
T5 sequence (O60566 whole entry): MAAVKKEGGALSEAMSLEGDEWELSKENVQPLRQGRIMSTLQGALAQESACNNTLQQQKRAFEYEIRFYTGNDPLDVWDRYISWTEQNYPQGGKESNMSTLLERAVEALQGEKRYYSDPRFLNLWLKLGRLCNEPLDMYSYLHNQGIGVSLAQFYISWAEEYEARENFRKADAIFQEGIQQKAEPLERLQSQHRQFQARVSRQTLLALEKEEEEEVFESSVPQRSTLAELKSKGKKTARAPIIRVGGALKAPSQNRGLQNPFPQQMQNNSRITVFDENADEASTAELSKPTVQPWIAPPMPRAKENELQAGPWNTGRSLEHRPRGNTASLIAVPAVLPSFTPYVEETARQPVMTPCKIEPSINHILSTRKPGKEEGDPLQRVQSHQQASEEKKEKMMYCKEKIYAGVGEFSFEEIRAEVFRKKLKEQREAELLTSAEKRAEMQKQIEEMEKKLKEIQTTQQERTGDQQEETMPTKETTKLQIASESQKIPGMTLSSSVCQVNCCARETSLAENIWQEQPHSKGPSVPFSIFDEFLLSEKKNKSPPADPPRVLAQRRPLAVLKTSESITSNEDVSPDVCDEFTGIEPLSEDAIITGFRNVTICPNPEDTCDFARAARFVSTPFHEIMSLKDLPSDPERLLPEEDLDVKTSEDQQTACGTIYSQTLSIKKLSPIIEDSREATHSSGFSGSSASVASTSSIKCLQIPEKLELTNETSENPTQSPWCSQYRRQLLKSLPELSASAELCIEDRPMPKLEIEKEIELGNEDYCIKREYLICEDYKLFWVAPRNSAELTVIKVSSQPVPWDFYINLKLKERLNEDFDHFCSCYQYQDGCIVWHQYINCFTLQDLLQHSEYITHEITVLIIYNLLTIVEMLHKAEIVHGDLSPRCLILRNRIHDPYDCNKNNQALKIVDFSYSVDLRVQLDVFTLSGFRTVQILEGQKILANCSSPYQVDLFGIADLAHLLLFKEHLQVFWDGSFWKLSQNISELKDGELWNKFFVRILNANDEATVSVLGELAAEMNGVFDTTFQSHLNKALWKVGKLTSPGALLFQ
Method: as §1

RAF1 = target: T6, RAF1 (Homo sapiens, UniProt P04049);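 on 0.001 uM KAM: median log10 fold change of treatment over DMSO control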;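 on 0.01 uM KAM: median log10 fold change of treatment over DMSO control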;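 on 0.1 uM KAM: median log10 fold change of treatment over DMSO control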;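 on 1 uM KAM: median log10 fold change of treatment over DMSO control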;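 on 10 uM KAM: median log10 fold change of treatment over DMSO control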
T6 construct: endogenous in cells; host or cells: K562
T6 sequence (P04049 whole entry): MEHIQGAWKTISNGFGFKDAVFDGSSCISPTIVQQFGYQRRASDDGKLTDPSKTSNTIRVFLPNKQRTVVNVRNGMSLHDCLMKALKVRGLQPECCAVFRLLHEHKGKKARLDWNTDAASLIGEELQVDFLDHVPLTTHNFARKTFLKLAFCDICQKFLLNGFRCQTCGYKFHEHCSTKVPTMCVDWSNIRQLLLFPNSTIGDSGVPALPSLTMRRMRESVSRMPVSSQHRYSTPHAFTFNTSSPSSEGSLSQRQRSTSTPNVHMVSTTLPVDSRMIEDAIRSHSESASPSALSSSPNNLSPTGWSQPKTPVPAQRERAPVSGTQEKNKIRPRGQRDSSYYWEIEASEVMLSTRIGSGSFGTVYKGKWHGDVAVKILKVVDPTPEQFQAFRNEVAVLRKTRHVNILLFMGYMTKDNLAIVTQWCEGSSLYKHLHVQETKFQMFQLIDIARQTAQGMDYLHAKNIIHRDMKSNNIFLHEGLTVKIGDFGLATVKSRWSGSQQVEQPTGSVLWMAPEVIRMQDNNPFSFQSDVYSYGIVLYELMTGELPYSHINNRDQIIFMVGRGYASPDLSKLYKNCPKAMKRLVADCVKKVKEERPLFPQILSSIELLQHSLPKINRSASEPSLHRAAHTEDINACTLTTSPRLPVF
Method: as §1

TYK2 = target: T7, TYK2 (Homo sapiens, UniProt P29597)
T7 construct: endogenous in cells; host or cells: K562
T7 sequence (P29597 whole entry): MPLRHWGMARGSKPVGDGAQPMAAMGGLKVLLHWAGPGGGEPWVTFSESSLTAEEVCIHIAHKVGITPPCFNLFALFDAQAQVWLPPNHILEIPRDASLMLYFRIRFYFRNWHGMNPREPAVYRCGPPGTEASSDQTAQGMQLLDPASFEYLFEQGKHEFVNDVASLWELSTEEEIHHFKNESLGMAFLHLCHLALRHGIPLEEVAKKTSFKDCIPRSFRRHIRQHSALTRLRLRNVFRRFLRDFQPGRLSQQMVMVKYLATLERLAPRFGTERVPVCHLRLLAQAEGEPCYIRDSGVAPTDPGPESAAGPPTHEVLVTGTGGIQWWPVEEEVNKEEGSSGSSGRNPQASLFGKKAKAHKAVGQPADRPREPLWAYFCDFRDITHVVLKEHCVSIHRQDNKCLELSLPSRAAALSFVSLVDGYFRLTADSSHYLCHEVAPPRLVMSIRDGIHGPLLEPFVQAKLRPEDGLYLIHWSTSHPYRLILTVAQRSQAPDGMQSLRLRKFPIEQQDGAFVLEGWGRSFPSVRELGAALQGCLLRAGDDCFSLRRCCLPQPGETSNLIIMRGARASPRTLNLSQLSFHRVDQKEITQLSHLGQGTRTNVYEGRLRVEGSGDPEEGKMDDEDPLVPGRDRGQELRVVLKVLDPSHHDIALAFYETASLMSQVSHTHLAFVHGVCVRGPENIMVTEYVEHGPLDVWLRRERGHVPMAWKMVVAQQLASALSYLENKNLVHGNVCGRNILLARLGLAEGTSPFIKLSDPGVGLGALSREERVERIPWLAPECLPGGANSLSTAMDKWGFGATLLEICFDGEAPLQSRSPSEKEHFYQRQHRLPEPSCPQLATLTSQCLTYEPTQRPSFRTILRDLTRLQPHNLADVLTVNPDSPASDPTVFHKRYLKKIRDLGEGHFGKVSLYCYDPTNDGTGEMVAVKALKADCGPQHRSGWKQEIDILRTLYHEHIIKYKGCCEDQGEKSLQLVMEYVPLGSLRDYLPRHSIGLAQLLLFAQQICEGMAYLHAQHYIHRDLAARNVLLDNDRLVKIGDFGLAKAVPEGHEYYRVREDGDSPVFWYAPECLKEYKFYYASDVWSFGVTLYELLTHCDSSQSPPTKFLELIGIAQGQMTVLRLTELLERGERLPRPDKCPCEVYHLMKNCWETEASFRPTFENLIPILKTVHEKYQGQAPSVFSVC
Method: as §1

TBK1 = target: T8, TBK1 (Homo sapiens, UniProt Q9UHD2)
T8 construct: endogenous in cells; host or cells: K562
T8 sequence (Q9UHD2 1-729): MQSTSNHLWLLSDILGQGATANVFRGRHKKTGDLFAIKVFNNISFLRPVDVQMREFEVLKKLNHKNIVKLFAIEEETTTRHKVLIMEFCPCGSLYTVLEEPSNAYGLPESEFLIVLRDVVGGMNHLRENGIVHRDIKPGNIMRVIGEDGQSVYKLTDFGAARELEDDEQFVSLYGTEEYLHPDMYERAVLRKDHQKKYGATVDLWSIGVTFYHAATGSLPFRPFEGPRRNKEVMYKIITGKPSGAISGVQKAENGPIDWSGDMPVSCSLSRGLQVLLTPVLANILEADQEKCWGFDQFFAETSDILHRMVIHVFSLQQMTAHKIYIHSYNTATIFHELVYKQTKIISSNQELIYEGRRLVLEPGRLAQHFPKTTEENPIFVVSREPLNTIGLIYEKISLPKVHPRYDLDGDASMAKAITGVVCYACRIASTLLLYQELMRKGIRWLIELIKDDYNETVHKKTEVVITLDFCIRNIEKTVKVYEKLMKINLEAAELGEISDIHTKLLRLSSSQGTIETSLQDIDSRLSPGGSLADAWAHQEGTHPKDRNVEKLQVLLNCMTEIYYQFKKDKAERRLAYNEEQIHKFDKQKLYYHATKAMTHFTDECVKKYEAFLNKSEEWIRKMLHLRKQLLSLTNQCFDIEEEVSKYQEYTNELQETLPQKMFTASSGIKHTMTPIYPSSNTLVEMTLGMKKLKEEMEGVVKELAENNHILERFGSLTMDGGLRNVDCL
Method: as §1

TTN = target: T9, TTN (Homo sapiens, UniProt Q8WZ42);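 on 0.001 uM KAM: median log10 fold change of treatment over DMSO control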;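 on 0.01 uM KAM: median log10 fold change of treatment over DMSO control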;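 on 0.1 uM KAM: median log10 fold change of treatment over DMSO control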;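 on 1 uM KAM: median log10 fold change of treatment over DMSO control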;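 on 10 uM KAM: median log10 fold change of treatment over DMSO control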
T9 construct: endogenous in cells; host or cells: K562
Method: as §1

PKN1 = target: T10, PKN1 (Homo sapiens, UniProt Q16512);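 on 0.001 uM KAM: median log10 fold change of treatment over DMSO control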;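 on 0.01 uM KAM: median log10 fold change of treatment over DMSO control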;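 on 0.1 uM KAM: median log10 fold change of treatment over DMSO control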;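 on 1 uM KAM: median log10 fold change of treatment over DMSO control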;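 on 10 uM KAM: median log10 fold change of treatment over DMSO control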
T10 construct: endogenous in cells; host or cells: K562
T10 sequence (Q16512 whole entry): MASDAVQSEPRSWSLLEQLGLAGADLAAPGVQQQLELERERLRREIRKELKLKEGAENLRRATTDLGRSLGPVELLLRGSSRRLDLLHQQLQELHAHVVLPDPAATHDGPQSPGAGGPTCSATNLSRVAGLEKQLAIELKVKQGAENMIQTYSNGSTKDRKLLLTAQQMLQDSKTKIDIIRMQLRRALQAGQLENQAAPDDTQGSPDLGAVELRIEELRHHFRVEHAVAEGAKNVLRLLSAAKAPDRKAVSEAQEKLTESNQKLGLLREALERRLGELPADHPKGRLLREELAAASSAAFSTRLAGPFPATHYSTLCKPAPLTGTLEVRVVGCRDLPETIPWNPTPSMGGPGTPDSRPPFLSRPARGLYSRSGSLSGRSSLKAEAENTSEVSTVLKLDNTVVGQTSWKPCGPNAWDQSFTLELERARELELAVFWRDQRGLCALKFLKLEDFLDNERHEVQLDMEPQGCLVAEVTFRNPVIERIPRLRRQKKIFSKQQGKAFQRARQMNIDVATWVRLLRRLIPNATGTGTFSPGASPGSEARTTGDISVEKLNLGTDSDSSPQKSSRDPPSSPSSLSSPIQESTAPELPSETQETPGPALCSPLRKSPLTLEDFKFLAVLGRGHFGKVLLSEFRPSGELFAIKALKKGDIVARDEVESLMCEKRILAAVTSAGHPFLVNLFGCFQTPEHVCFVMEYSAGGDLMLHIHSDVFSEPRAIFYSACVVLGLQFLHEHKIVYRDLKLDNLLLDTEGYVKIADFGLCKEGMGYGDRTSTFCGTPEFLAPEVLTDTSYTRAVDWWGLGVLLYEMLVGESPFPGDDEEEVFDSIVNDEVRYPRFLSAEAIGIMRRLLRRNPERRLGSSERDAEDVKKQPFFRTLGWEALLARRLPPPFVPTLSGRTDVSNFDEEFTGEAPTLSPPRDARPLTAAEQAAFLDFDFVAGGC
Method: as §1

CAMK4 = target: T11, CAMK4 (Homo sapiens, UniProt Q16566);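 on 0.001 uM KAM: median log10 fold change of treatment over DMSO control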;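 on 0.01 uM KAM: median log10 fold change of treatment over DMSO control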;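 on 0.1 uM KAM: median log10 fold change of treatment over DMSO control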;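 on 1 uM KAM: median log10 fold change of treatment over DMSO control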;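 on 10 uM KAM: median log10 fold change of treatment over DMSO control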
T11 construct: endogenous in cells; host or cells: K562
T11 sequence (Q16566 1-473): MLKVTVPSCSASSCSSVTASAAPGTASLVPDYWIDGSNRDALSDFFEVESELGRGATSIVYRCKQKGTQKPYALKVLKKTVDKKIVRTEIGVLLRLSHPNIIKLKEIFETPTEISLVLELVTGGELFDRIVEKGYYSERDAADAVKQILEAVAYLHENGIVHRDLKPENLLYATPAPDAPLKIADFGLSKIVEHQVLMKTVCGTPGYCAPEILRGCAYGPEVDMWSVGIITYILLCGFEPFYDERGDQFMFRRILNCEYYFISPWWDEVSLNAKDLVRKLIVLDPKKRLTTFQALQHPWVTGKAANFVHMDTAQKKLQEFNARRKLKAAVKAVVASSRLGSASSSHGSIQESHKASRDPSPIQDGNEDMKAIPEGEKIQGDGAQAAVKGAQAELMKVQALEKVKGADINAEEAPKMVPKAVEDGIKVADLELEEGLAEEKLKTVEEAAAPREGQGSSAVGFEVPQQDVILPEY
Method: as §1

[1] = read-out: RB50 (the source's name)
[2] = KAM 0.001-10 uM, read-out: RB50 (the source's name)

N#CCc1ccc(Nc2nc(NCCCN)cc(Nc3cc(C4CC4)[nH]n3)n2)cc1 [KAM]
median Log10 fold change (RIPK2; 0.001 uM KAM): 0.003964 | median Log10 fold change (RIPK2; 0.01 uM KAM): -0.006424 | median Log10 fold change (RIPK2; 0.1 uM KAM): -0.0711 | median Log10 fold change (RIPK2; 1 uM KAM): -0.241 | median Log10 fold change (RIPK2; 10 uM KAM): -0.4874 | IC50 (RIPK2; [1]): 1.86 µM | IC50 (ACVR2B; [2]): > 10 µM | 0.001 uM KAM (ACVR2B; relative to 0 uM KAM = 0): 0.02766 | 0.01 uM KAM (ACVR2B; relative to 0 uM KAM = 0): -0.009918 | 0.1 uM KAM (ACVR2B; relative to 0 uM KAM = 0): -0.09138 | 1 uM KAM (ACVR2B; relative to 0 uM KAM = 0): -0.2794 | 10 uM KAM (ACVR2B; relative to 0 uM KAM = 0): -0.2958 | median Log10 fold change (MAPK9; 0.001 uM KAM): -0.01416 | median Log10 fold change (MAPK9; 0.01 uM KAM): -0.02342 | median Log10 fold change (MAPK9; 0.1 uM KAM): -0.0954 | median Log10 fold change (MAPK9; 1 uM KAM): -0.2518 | median Log10 fold change (MAPK9; 10 uM KAM): -0.4014 | IC50 (MAPK9; [1]): 2.07 µM | IC50 (BRD4; [2]): > 10 µM | 0.001 uM KAM (BRD4; relative to 0 uM KAM = 0): -0.02698 | 0.01 uM KAM (BRD4; relative to 0 uM KAM = 0): 0.00122 | 0.1 uM KAM (BRD4; relative to 0 uM KAM = 0): 0.04808 | 1 uM KAM (BRD4; relative to 0 uM KAM = 0): 0.01224 | 10 uM KAM (BRD4; relative to 0 uM KAM = 0): -0.001488 | IC50 (BUB1B; [2]): > 10 µM | 0.001 uM KAM (BUB1B; relative to 0 uM KAM = 0): -0.0187 | 0.01 uM KAM (BUB1B; relative to 0 uM KAM = 0): -0.008778 | 0.1 uM KAM (BUB1B; relative to 0 uM KAM = 0): -0.0591 | 1 uM KAM (BUB1B; relative to 0 uM KAM = 0): -0.007813 | 10 uM KAM (BUB1B; relative to 0 uM KAM = 0): -0.008689 | IC50 (RAF1; [2]): > 10 µM | 0.001 uM KAM (RAF1; relative to 0 uM KAM = 0): 0.02436 | 0.01 uM KAM (RAF1; relative to 0 uM KAM = 0): -0.01322 | 0.1 uM KAM (RAF1; relative to 0 uM KAM = 0): -0.08739 | 1 uM KAM (RAF1; relative to 0 uM KAM = 0): -0.1339 | 10 uM KAM (RAF1; relative to 0 uM KAM = 0): -0.1871 | median Log10 fold change (TYK2; 0.001 uM KAM): -0.01748 | median Log10 fold change (TYK2; 0.01 uM KAM): -0.01468 | median Log10 fold change (TYK2; 0.1 uM KAM): -0.1723 | median Log10 fold change (TYK2; 1 uM KAM): -0.4058 | median Log10 fold change (TYK2; 10 uM KAM): -0.4958 | IC50 (TYK2; [1]): 0.536 µM | median Log10 fold change (TBK1; 0.001 uM KAM): -0.0003533 | median Log10 fold change (TBK1; 0.01 uM KAM): 0.01133 | median Log10 fold change (TBK1; 0.1 uM KAM): -0.1059 | median Log10 fold change (TBK1; 1 uM KAM): -0.5242 | median Log10 fold change (TBK1; 10 uM KAM): -0.6823 | IC50 (TBK1; [1]): 0.452 µM | IC50 (TTN; [2]): > 10 µM | 0.001 uM KAM (TTN; relative to 0 uM KAM = 0): -0.03178 | 0.01 uM KAM (TTN; relative to 0 uM KAM = 0): 0.01596 | 0.1 uM KAM (TTN; relative to 0 uM KAM = 0): -0.008464 | 1 uM KAM (TTN; relative to 0 uM KAM = 0): 0.03427 | 10 uM KAM (TTN; relative to 0 uM KAM = 0): 0.01084 | IC50 (PKN1; [2]): > 10 µM | 0.001 uM KAM (PKN1; relative to 0 uM KAM = 0): -0.02702 | 0.01 uM KAM (PKN1; relative to 0 uM KAM = 0): -0.01686 | 0.1 uM KAM (PKN1; relative to 0 uM KAM = 0): -0.08252 | 1 uM KAM (PKN1; relative to 0 uM KAM = 0): -0.1762 | 10 uM KAM (PKN1; relative to 0 uM KAM = 0): -0.2257 | IC50 (CAMK4; [2]): > 10 µM | 0.001 uM KAM (CAMK4; relative to 0 uM KAM = 0): -0.0432 | 0.01 uM KAM (CAMK4; relative to 0 uM KAM = 0): 0.002565 | 0.1 uM KAM (CAMK4; relative to 0 uM KAM = 0): 0.008768 | 1 uM KAM (CAMK4; relative to 0 uM KAM = 0): 0.00582 | 10 uM KAM (CAMK4; relative to 0 uM KAM = 0): -0.03437
